What was measured:
[1] = tested on: Bacteroides fragilis ATCC 25285 L1011; test: MIC by microbroth dilution; assay type: cell-based; settings: 0.01% (w/v) BSA, 10^5 CFU/ml, read after 48 h, 37° C., anaerobic N2-CO2-H2, Wilkins-Chalgren broth
Description: (§1) The minimal inhibitory concentration (MIC) has been determined by microbroth dilution methodology, in the presence of 0.01% (w/v) of bovine serum albumin (BSA). BSA is added to the diluent to avoid possible adherence of the compounds of the invention to the plastic surface of the microtiter wells, as disclosed also by B. Goldstein et al., Antimicrobial Agents and Chemotherapy, 37 (1993), 741-745.
(§2) Inocula were 10^4 CFU/ml, except for Propionibacterium acnes and Bacteroides fragilis (10^5 CFU/ml).
(§3) MICs were read after 18-24 h, except for Haemophilus influenzae, P. acnes, B. fragilis (48 h).
(§4) All microorganisms were incubated at 37° C.; H. influenzae in a 5% CO2 atmosphere, anaerobes in a N2 --CO2 --H2 (80:10:10) mixture; other organisms in air.
(§5) The growth media are: Oxoid Iso-Sensitest broth for staphylococci and Enterococcus faecalis); Difco Todd Hewitt broth for streptococci; Difco brain heart infusion broth+1% Difco Supplement C for H. influenzae; Difco Wilkins-Chalgren broth for anaerobes.

[2] = tested on: Staph. epidermidis ATCC 12228 L147; test: MIC by microbroth dilution; assay type: cell-based; settings: 0.01% (w/v) BSA, 10^4 CFU/ml, read after 18-24 h, 37° C., Iso-Sensitest broth
Description: as §1, §2, §3, §4, §5

Staph. haemolyticus L602 = test: MIC by microbroth dilution; assay type: cell-based; settings: 0.01% (w/v) BSA, 10^4 CFU/ml, read after 18-24 h, 37° C., Iso-Sensitest broth
Description: as §1, §2, §3, §4, §5

[3] = tested on: Staphylococcus aureus L165; test: MIC by microbroth dilution; assay type: cell-based; settings: 0.01% (w/v) BSA, 10^4 CFU/ml, read after 18-24 h, 37° C., Iso-Sensitest broth
Description: as §1, §2, §3, §4, §5

Strept. sanguis L1721 = test: MIC by microbroth dilution; assay type: cell-based; settings: 0.01% (w/v) BSA, 10^4 CFU/ml, read after 18-24 h, 37° C., Todd Hewitt broth
Description: as §1, §2, §3, §4, §5

[4] = tested on: Streptococcus pyogenes L49; test: MIC by microbroth dilution; assay type: cell-based; settings: 0.01% (w/v) BSA, 10^4 CFU/ml, read after 18-24 h, 37° C., Todd Hewitt broth
Description: as §1, §2, §3, §4, §5

Strept. pneumoniae L44 = test: MIC by microbroth dilution; assay type: cell-based; settings: 0.01% (w/v) BSA, 10^4 CFU/ml, read after 18-24 h, 37° C., Todd Hewitt broth
Description: BSA is added to the diluent to avoid possible adherence of the compounds of the invention to the plastic surface of the microtiter wells, as disclosed also by B. Goldstein et al., Antimicrobial Agents and Chemotherapy, 37 (1993), 741-745. Inocula were 10^4 CFU/ml, except for Propionibacterium acnes and Bacteroides fragilis (10^5 CFU/ml). MICs were read after 18-24 h, except for Haemophilus influenzae, P. acnes, B. fragilis (48 h). All microorganisms were incubated at 37° C.; H. influenzae in a 5% CO2 atmosphere, anaerobes in a N2 --CO2 --H2 (80:10:10) mixture; other organisms in air. The growth media are: Oxoid Iso-Sensitest broth for staphylococci and Enterococcus faecalis); Difco Todd Hewitt broth for streptococci; Difco brain heart infusion broth+1% Difco Supplement C for H. influenzae; Difco Wilkins-Chalgren broth for anaerobes.

[5] = tested on: Enterococc. faecalis ATCC 7080 L149; test: MIC by microbroth dilution; assay type: cell-based, Enterococcus faecalis; settings: 0.01% (w/v) BSA, 10^4 CFU/ml, read after 18-24 h, 37° C., Iso-Sensitest broth
Description: as §1, §2, §3, §4, §5

[6] = tested on: Propionibact. acnes ATCC 6919 L1014; test: MIC by microbroth dilution; assay type: cell-based, Propionibacterium acnes; settings: 0.01% (w/v) BSA, 10^5 CFU/ml, read after 48 h, 37° C., anaerobic N2-CO2-H2, Wilkins-Chalgren broth
Description: as §1, §2, §3, §4, §5

[7] = tested on: Haemoph. influenzae ATCC 19418 L970; test: MIC by microbroth dilution; assay type: cell-based, Haemophilus influenzae; settings: 0.01% (w/v) BSA, 10^4 CFU/ml, read after 48 h, 37° C., 5% CO2, brain heart infusion broth+1% Supplement C
Description: as §1, §2, §3, §4, §5

Strept. agalactiae L310 = test: MIC by microbroth dilution; assay type: cell-based; settings: 0.01% (w/v) BSA, 10^4 CFU/ml, read after 18-24 h, 37° C., Todd Hewitt broth
Description: as §1, §2, §3, §4, §5

staphylococci isolates = test: MIC on clinical isolates; assay type: cell-based; settings: highest MIC observed
streptococci isolates = test: MIC on clinical isolates; assay type: cell-based; settings: highest MIC observed
enterococci isolates = test: MIC on clinical isolates; assay type: cell-based; settings: highest MIC observed
S. aureus (L819) = test: experimental septicemia in the mouse; assay type: in vivo; settings: immunocompetent CD-1 mice infected i.p.; intravenously once, immediately after infection; survival on the 7th day
Description: (§6) The antimicrobial activity of the compounds of the invention is confirmed also in experimental septicemia in the mouse. Control and treatment groups contain ten CD-1 mice (Charles River) weighing 18-22 g. Two groups of immunocompetent mice are infected intraperitoneally with 0.5 ml of bacterial suspension prepared by diluting an overnight culture of S. aureus ([…]) or S. pyogenes ([…]) with sterile peptonized saline, while one group of neutropenic mice is infected intraperitoneally with 0.5 ml of bacterial suspension prepared by diluting an overnight culture of or E. faecalis ([…]) with sterile peptonized saline. Inocula are adjusted so that untreated animals died of septicemia within 48 h. The compound to be tested is administered intravenously once, immediately after infection with S. aureus, or twice, immediately and 5 hours after infection with S. pyogenes or E. faecalis. On the 7th day, the ED50 in mg/kg is calculated by the method of Spearman and Kraber (D. J. Finney "Statistical Methods in Biological Assay", Griffin, page 524, 1952) from the percentage of surviving animals at each dose.

S. pyogenes (L49) = test: experimental septicemia in the mouse; assay type: in vivo; settings: immunocompetent CD-1 mice infected i.p.; intravenously twice, immediately and 5 hours after infection; survival on the 7th day
Description: as §6

E. faecalis (L1139) = test: experimental septicemia in the mouse (neutropenic); assay type: in vivo; settings: neutropenic CD-1 mice infected i.p.; intravenously twice, immediately and 5 hours after infection; survival on the 7th day
Description: as §6

gram positive bacteria = settings: described by K. Shimanaka et al.; cited from earlier work

**Q.** Which results are given for `CCN(CC)CCNC(=O)C1CCCN1C(=O)C1COC(c2csc(-c3ccc4c(n3)-c3csc(n3)-c3csc(n3)C(C(O)c3ccccc3)NC(=O)CNC(=O)c3nc(sc3COC)C(C(C)C)NC(=O)c3nc(sc3C)C(CC(=O)NC)NC(=O)c3csc-4n3)n2)=N1` (mixture of isomers) [Compound 3]?
**A.** MIC of the compounds, Bacteroides fragilis ATCC 25285 L1011 [1]: 8 µg/mL; MIC of the compounds, Staph. epidermidis ATCC 12228 L147 [2]: 0.13 µg/mL; MIC of the compounds, Staph. haemolyticus L602 (Staph. haemolyticus L602): 0.13 µg/mL; MIC of the compounds, Staphylococcus aureus L165 [3]: 0.03 µg/mL; MIC of the compounds, Strept. sanguis L1721 (Strept. sanguis L1721): 0.25 µg/mL; MIC of the compounds, Streptococcus pyogenes L49 [4]: 0.5 µg/mL; MIC of the compounds, Strept. pneumoniae L44 (Strept. pneumoniae L44): 0.13 µg/mL; MIC of the compounds, Enterococc. faecalis ATCC 7080 L149 [5]: 0.03 µg/mL; MIC of the compounds, Propionibact. acnes ATCC 6919 L1014 [6]: 0.03 µg/mL; MIC of the compounds, Haemoph. influenzae ATCC 19418 L970 [7]: 8 µg/mL

**Q.** For `CCN(CC)CCNC(=O)C1CCCN1C(=O)C1COC(c2csc(-c3ccc4c(n3)-c3csc(n3)-c3csc(n3)C(C(O)c3ccccc3)NC(=O)CNC(=O)c3nc(sc3COC)C(C(C)C)NC(=O)c3nc(sc3C)C(CC(=O)NC)NC(=O)c3csc-4n3)n2)=N1` (stereo not shown) [Compound 3s], which “MIC of the compounds, Bacteroides fragilis ATCC 25285 L1011” value [1] is on record?
**A.** The value was 8 µg/mL.

**Q.** What about the “MIC of the compounds, Staph. epidermidis ATCC 12228 L147” value [2] of the same molecule?
**A.** Its value is 0.13 µg/mL.

**Q.** What about the “MIC of the compounds, Staph. haemolyticus L602” value (Staph. haemolyticus L602) of the same molecule?
**A.** Its value is 0.13 µg/mL.

**Q.** And the “MIC of the compounds, Staphylococcus aureus L165” value [3]?
**A.** The value was 0.06 µg/mL.

**Q.** What about the “MIC of the compounds, Strept. agalactiae L310” value (Strept. agalactiae L310) of the same molecule?
**A.** The value was 0.5 µg/mL.

**Q.** And the “MIC of the compounds, Strept. sanguis L1721” value (Strept. sanguis L1721)?
**A.** Its value is 0.13 µg/mL.

**Q.** What about the “MIC of the compounds, Streptococcus pyogenes L49” value [4] of the same molecule?
**A.** Its value is 0.25 µg/mL.

**Q.** And the “MIC of the compounds, Strept. pneumoniae L44” value (Strept. pneumoniae L44)?
**A.** The value was 0.13 µg/mL.

**Q.** And the “MIC of the compounds, Enterococc. faecalis ATCC 7080 L149” value [5]?
**A.** The value was 0.06 µg/mL.

**Q.** What about the “MIC of the compounds, Propionibact. acnes ATCC 6919 L1014” value [6] of the same molecule?
**A.** Its value is 0.03 µg/mL.

**Q.** What about the “MIC of the compounds, Haemoph. influenzae ATCC 19418 L970” value [7] of the same molecule?
**A.** The value was 8 µg/mL.

**Q.** What about the “MIC against staphylococci isolates” value (staphylococci isolates) of the same molecule?
**A.** Its value is at most 0.5 µg/mL.

**Q.** What about the “MIC against streptococci isolates” value (streptococci isolates) of the same molecule?
**A.** Its value is at most 1.0 µg/mL.

**Q.** And the “MIC against enterococci isolates” value (enterococci isolates)?
**A.** Its value is at most 0.13 µg/mL.

**Q.** What about the “ED50 in experimental septicemia, S. aureus (L819)” value (S. aureus (L819)) of the same molecule?
**A.** Its value is 1.5 mg/kg/dose.

**Q.** And the “ED50 in experimental septicemia, S. pyogenes (L49)” value (S. pyogenes (L49))?
**A.** The value was 7 mg/kg/dose.

**Q.** What about the “ED50 in experimental septicemia, E. faecalis (L1139)” value (E. faecalis (L1139)) of the same molecule?
**A.** The value was 0.67 mg/kg/dose.

**Q.** Which “antimicrobial activity against gram positive bacteria” value (gram positive bacteria) does the source give for `CNC(=O)CC1NC(=O)c2csc(n2)-c2ccc(-c3nc(C4=NC(C(=O)N5CCCC5C(N)=O)CO4)cs3)nc2-c2csc(n2)-c2csc(n2)C(C(C)C)NC(=O)CNC(=O)c2csc(n2)C(C(C)C)NC(=O)c2nc1sc2C` (stereo not shown) [amythiamicin factor A] here?
**A.** Its value is “shows antimicrobial activity against gram positive bacteria”.

— US6143739A, “Basic proline-amide derivatives of GE 2270 and GE 2270-like antibiotics” (Biosearch Italia S.p.A., priority 1995, dated 2000)
